In this experiment the target is BCL6 (Homo sapiens (Human), UniProt P41182). Nature of the experiment: Immunofluorescence high content imaging of BCL6 degradation in T47D cells. It is filed as cell-based. The note with it: for DC50: class symbols A-D, read-out: EC50 (nM)*. An outline of the steps: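 T47D, 3 d compound exposure, 11-pt 3-fold series, top 0.1 or 1 μM final. Fix 4% PFA, Triton permeabilize, anti-BCL6 primary overnight 4 °C, Alexa-488 secondary. High-content imaging 10×, 4 fields/well, top-hat smoothing.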

This is an account of results in patent US12310975B2, “Modulators of BCL6 proteolysis and associated methods of use” (Arvinas Operations, Inc., priority 2019, dated 2025).

Read-outs that look alike come from different tables or passages of the source.

As usually defined, the Dmax is the largest share of the target that was removed. By IC50 is commonly meant the midpoint of a concentration-inhibition curve. Low readings indicate higher potency, high ones lower potency.

Regarding `CNC(=O)COc1cc2cc(Nc3nc(N4CCC(OCCOCCOCCOc5cc(-c6scnc6C)ccc5CNC(=O)[C@@H]5C[C@@H](O)CN5C(=O)[C@H](c5cc(C)no5)C(C)C)CC4)ncc3Cl)ccc2n(C)c1=O` [compound 49, (2S,4R)-N-(2-(2-(2-(2-((1-(5-chloro-4-((1-methyl-3-(2-(methylamino)-2-oxoethoxy)-2-oxo-1,2-dihydroquinolin-6-yl)amino)pyrimidin-2-yl)piperidin-4-yl)oxy)ethoxy)ethoxy)ethoxy)-4-(4-methylthiazol-5-yl)benzyl)-4-hydroxy-1-((S)-3-methyl-2-(3-methylisoxazol-5-yl)butanoyl)pyrrolidine-2-carboxamide], the DC50 is greater than 100 nM. Regarding `CCn1c(=O)c(OCC(=O)NC)cc2cc(Nc3nc(N4CCC(OCC5CCN(c6ccc7c(c6)C(=O)N(C6CCC(=O)NC6=O)C7=O)CC5)CC4)ncc3Cl)ccc21` (stereo not drawn) [compound 329, 2-{[6-({5-chloro-2-[4-({1-[2-(2,6-dioxopiperidin-3-yl)-1,3-dioxo-2,3-dihydro-1H-isoindol-5-yl]piperidin-4-yl}methoxy)piperidin-1-yl]pyrimidin-4-yl}amino)-1-ethyl-2-oxo-1,2-dihydroquinolin-3-yl]oxy}-N-methylacetamide], where the note is “T47D cells”, the Dmax was less than 50% and the IC50 was less than 10 nM. Turning to `CCn1c(=O)c(OCC(=O)NC)cc2cc(Nc3nc(N4CCN(CC5CN(C6CN(c7ccc8c(c7)C(=O)N(C7CCC(=O)NC7=O)C8=O)C6)C5)CC4)ncc3Cl)ccc21` (stereo not drawn) [compound 302, 2-{[6-({5-chloro-2-[4-({1′-[2-(2,6-dioxopiperidin-3-yl)-1,3-dioxo-2,3-dihydro-1H-isoindol-5-yl]-[1,3′-biazetidin]-3-yl}methyl)piperazin-1-yl]pyrimidin-4-yl}amino)-1-ethyl-2-oxo-1,2-dihydroquinolin-3-yl]oxy}-N-methylacetamide], the IC50 was in the range of 10 to 50 nM. For the same molecule, where the note is “T47D”, the Dmax was less than 50%. With `CNC(=O)COc1cc2cc(Nc3nc(N4CCC(CN5CCC(c6cccc7c6C(=O)N(C6CCC(=O)NC6=O)C7=O)CC5)CC4)ncc3Cl)ccc2n(C(C)C)c1=O` (stereo not drawn) [compound 386, 2-{[6-({5-chloro-2-[4-({4-[2-(2,6-dioxopiperidin-3-yl)-1,3-dioxo-2,3-dihydro-1H-isoindol-4-yl]piperidin-1-yl}methyl)piperidin-1-yl]pyrimidin-4-yl}amino)-2-oxo-1-(propan-2-yl)-1,2-dihydroquinolin-3-yl]oxy}-N-methylacetamide], under “T47D cells”, the Dmax was in the range of 50 to 70% and the IC50 was less than 10 nM. Take `CNC(=O)COc1cc2cc(Nc3nc(N4CCN(CC5CCN(c6ccc7c(c6)C(=O)N(C6CCC(=O)NC6=O)C7=O)CC5)CC4)c(C#N)cc3Cl)ccc2n(C)c1=O` (stereo not drawn) [compound 297, 2-{[6-({3-chloro-5-cyano-6-[4-({1-[2-(2,6-dioxopiperidin-3-yl)-1,3-dioxo-2,3-dihydro-1H-isoindol-5-yl]piperidin-4-yl}methyl)piperazin-1-yl]pyridin-2-yl}amino)-1-methyl-2-oxo-1,2-dihydroquinolin-3-yl]oxy}-N-methylacetamide]: the IC50 was less than 10 nM. For the setting “T47D”, this molecule showed a Dmax of less than 50%. Under “T47D cells”, `CNC(=O)COc1cc2cc(Nc3nc(N4CC5(CC(OC6CCN(c7ccc8c(c7)C(=O)N(C7CCC(=O)NC7=O)C8=O)CC6)C5)C4)ncc3Cl)ccc2n(C(C)C)c1=O` (stereo not drawn) [compound 405, 2-{[6-({5-chloro-2-[6-({1-[2-(2,6-dioxopiperidin-3-yl)-1,3-dioxo-2,3-dihydro-1H-isoindol-5-yl]piperidin-4-yl}oxy)-2-azaspiro[3.3]heptan-2-yl]pyrimidin-4-yl}amino)-2-oxo-1-(propan-2-yl)-1,2-dihydroquinolin-3-yl]oxy}-N-methylacetamide] gave an IC50 of no less than 100 nM. Take `CNC(=O)COc1cc2cc(Nc3nc(N4CCC(OCCOCCOc5ccc6c(c5)C(=O)N(C5CCC(=O)NC5=O)C6=O)CC4)ncc3Cl)ccc2n(C)c1=O` (stereo not drawn) [compound 63, 2-((6-((5-chloro-2-(4-(2-(2-((2-(2,6-dioxopiperidin-3-yl)-1,3-dioxoisoindolin-5-yl)oxy)ethoxy)ethoxy)piperidin-1-yl)pyrimidin-4-yl)amino)-1-methyl-2-oxo-1,2-dihydroquinolin-3-yl)oxy)-N-methylacetamide]: the DC50 lay in the range of 10 to 50 nM. Take `CNC(=O)COc1cc2cc(Nc3nc(N4CCC(OCCOCCOCCOCCOCC(=O)N[C@H](C(=O)N5C[C@H](O)C[C@H]5C(=O)NCc5ccc(-c6scnc6C)cc5)C(C)(C)C)CC4)ncc3Cl)ccc2n(C)c1=O` [compound 78, (2S,4R)-1-((S)-2-(tert-butyl)-17-((1-(5-chloro-4-((1-methyl-3-(2-(methylamino)-2-oxoethoxy)-2-oxo-1,2-dihydroquinolin-6-yl)amino)pyrimidin-2-yl)piperidin-4-yl)oxy)-4-oxo-6,9,12,15-tetraoxa-3-azaheptadecanoyl)-4-hydroxy-N-(4-(4-methylthiazol-5-yl)benzyl)pyrrolidine-2-carboxamide]: the DC50 is 10 to 50 nM.

With `CC(=O)COc1cc2cc(Nc3nc(C#CC4CCN(c5cccc6c5C(=O)N(C5CCC(=O)NC5=O)C6=O)CC4)ncc3Cl)ccc2n(C)c1=O` (stereo not drawn) [compound 184, 4-(4-((5-chloro-4-((1-methyl-2-oxo-3-(2-oxopropoxy)-1,2-dihydroquinolin-6-yl)amino)pyrimidin-2-yl)ethynyl)piperidin-1-yl)-2-(2,6-dioxopiperidin-3-yl)isoindoline-1,3-dione], the half-inhibitory concentration (IC50) was 10 to 50 nM. In addition, the Dmax (T47D) lay in the range of 50 to 70%. As to `CNC(=O)COc1cc2cc(Nc3nc(N4CCN(C)CC4)ncc3Cl)ccc2n(CCCCOc2ccc3c(c2)C(=O)N(C2CCC(=O)NC2=O)C3=O)c1=O` (stereo not drawn) [compound 238, 2-((6-((5-chloro-2-(4-methylpiperazin-1-yl)pyrimidin-4-yl)amino)-1-(4-((2-(2,6-dioxopiperidin-3-yl)-1,3-dioxoisoindolin-5-yl)oxy)butyl)-2-oxo-1,2-dihydroquinolin-3-yl)oxy)-N-methylacetamide], the IC50 is no less than 100 nM. For the same molecule, the Dmax (T47D) is less than 50%. As for `CNC(=O)COc1cc2cc(Nc3nc(N4CCN(CC5CCN(c6cccc7c6CN(C6CCC(=O)NC6=O)C7=O)CC5)CC4)ncc3Cl)ccc2n(C(C)C)c1=O` (stereo not drawn) [compound 423, 2-{[6-({5-chloro-2-[4-({1-[2-(2,6-dioxopiperidin-3-yl)-1-oxo-2,3-dihydro-1H-isoindol-4-yl]piperidin-4-yl}methyl)piperazin-1-yl]pyrimidin-4-yl}amino)-2-oxo-1-(propan-2-yl)-1,2-dihydroquinolin-3-yl]oxy}-N-methylacetamide], under “T47D cells”, the Dmax is no less than 70% and the IC50 was less than 10 nM. As for `CNC(=O)COc1cc2cc(Nc3nc(N4CCC(OCCOCCOCCOCCOCCOCCOCC(=O)N[C@H](C(=O)N5C[C@H](O)C[C@H]5C(=O)NCc5ccc(-c6scnc6C)cc5)C(C)(C)C)CC4)ncc3Cl)ccc2n(C)c1=O` [compound 83, (2S,4R)-1-((S)-2-(tert-butyl)-23-((1-(5-chloro-4-((1-methyl-3-(2-(methylamino)-2-oxoethoxy)-2-oxo-1,2-dihydroquinolin-6-yl)amino)pyrimidin-2-yl)piperidin-4-yl)oxy)-4-oxo-6,9,12,15,18,21-hexaoxa-3-azatricosanoyl)-4-hydroxy-N-(4-(4-methylthiazol-5-yl)benzyl)pyrrolidine-2-carboxamide], the DC50 lay in the range of 50 to 100 nM. Where the note is “T47D cells”, `CNC(=O)COc1cc2cc(Nc3nc(N4CCN(CC5CCN(c6cnc(C(=O)NC7CCC(=O)NC7=O)c(OC)c6)CC5)CC4)ncc3Cl)ccc2n(C)c1=O` (stereo not drawn) [compound 359, 5-[4-({4-[5-chloro-4-({1-methyl-3-[(methylcarbamoyl)methoxy]-2-oxo-1,2-dihydroquinolin-6-yl}amino)pyrimidin-2-yl]piperazin-1-yl}methyl)piperidin-1-yl]-N-(2,6-dioxopiperidin-3-yl)-3-methoxypyridine-2-carboxamide] showed a Dmax of 50 to 70% and an IC50 of 10 to 50 nM. `CNC(=O)COc1cc2cc(Nc3nc(N4CCC(F)(CN5CCN(c6ccc7c(c6)C(=O)N(C6CCC(=O)NC6=O)C7=O)CC5)CC4)ncc3Cl)ccc2n(C)c1=O` (stereo not drawn) [compound 340, 2-{[6-({5-chloro-2-[4-({4-[2-(2,6-dioxopiperidin-3-yl)-1,3-dioxo-2,3-dihydro-1H-isoindol-5-yl]piperazin-1-yl}methyl)-4-fluoropiperidin-1-yl]pyrimidin-4-yl}amino)-1-methyl-2-oxo-1,2-dihydroquinolin-3-yl]oxy}-N-methylacetamide]: for the setting “T47D cells”, the Dmax was in the range of 50 to 70% and the IC50 is less than 10 nM. Regarding `CNC(=O)COc1cc2cc(Nc3nc(N4CCN(CC5(F)CCN(c6ccc7c(c6)C(=O)N(C6CCC(=O)NC6=O)C7=O)CC5)CC4)ncc3Cl)ccc2n(C)c1=O` (stereo not drawn) [compound 339, 2-{[6-({5-chloro-2-[4-({1-[2-(2,6-dioxopiperidin-3-yl)-1,3-dioxo-2,3-dihydro-1H-isoindol-5-yl]-4-fluoropiperidin-4-yl}methyl)piperazin-1-yl]pyrimidin-4-yl}amino)-1-methyl-2-oxo-1,2-dihydroquinolin-3-yl]oxy}-N-methylacetamide], where the note is “T47D cells”, the Dmax was 50 to 70% and the IC50 was less than 10 nM. Taken in the same sequence, the figures for `CNC(=O)COc1cc2cc(Nc3nc(N4CCO[C@H](COc5ccc(C(=O)NC6CCC(=O)NC6=O)nc5)C4)ncc3Cl)ccc2n(C(C)C)c1=O` (stereo partly drawn) [compound 349, 5-{[(2S)-4-[5-chloro-4-({3-[(methylcarbamoyl)methoxy]-2-oxo-1-(propan-2-yl)-1,2-dihydroquinolin-6-yl}amino)pyrimidin-2-yl]morpholin-2-yl]methoxy}-N-(2,6-dioxopiperidin-3-yl)pyridine-2-carboxamide] were less than 50% and no less than 100 nM.
